Data set [1] is described as follows: Intrinsic clearance in human liver microsomes assessed per mg protein. It is filed as ADME, Microsome.
Data set [2] is described as follows: Lipophilicity, log D of the compound. The settings on record: octanol/water. It is filed as physicochemical.
A short description of data set [3]: Intrinsic clearance in mouse liver microsomes assessed per mg protein. The data set is classed as ADME, Microsome. (In general: Liver microsomes are a subcellular fraction often used to study metabolism.)

Molecules are shown by their SMILES.

For orientation: logD means lipophilicity at a set pH, counting ionised and neutral species. A high value points to a more lipophilic compound. For the compound `Clc1ncc(Cl)c(-n2ccc3ncccc32)n1`, the CLH in data set [1] was found to be 11.7 µL/min; in data set [3] it was 131 µL/min. In data set [2], the logD was 2.3.

Values taken from ChEMBL document CHEMBL5143742, “Discovery and Characterization of a Novel Series of Chloropyrimidines as Covalent Inhibitors of the Kinase MSK1” (ACS Med Chem Lett, 2022).
